The values below come from US20220370445A1, “METHODS FOR ADMINISTERING (R)-N-[4-(1,4,5,6-TETRAHYDRO-6-OXO-3-PYRIDAZINYL)PHENYL]ACETAMIDE” (ORION CORPORATION, priority 2019, published 2022).

Where a name gives a salt, the structure may show the parent alone.

Data set [1] in a line: Bioavailability of compound (I) by ocular, intranasal or oromucosal administration vs i.v. in dogs. To be noted: Beagle dogs; for bioavailability: dog, plasma, n=6. In kind it is in vivo. On the procedure: (§1) Bioavailability of compound (I) given by ocular (4 μg/kg), intranasal (4 μg/kg) or oromucosal dosing (5 μg/kg) was compared to 4 μg/kg intravenous (i.v.) administration in Beagle dogs.
The study was a crossover study with at least 6 days washout period between the treatment periods. The animals were fasted overnight before dosing by withdrawing the remaining feed (if any) at least 12 h before dosing. On dosing days, food was offered approximately at 4 h after dosing (after the 4 h blood sampling).
(§2) Composition of Formulation Example 1 was used for ocular administration, composition of Formulation Example 2 was used for intranasal administration and composition of Formulation Example 3 was used for oromucosal administration.
(§3) Ocular and intranasal doses were divided equally to both eyes or both nostrils. Oromucosal gel formulation was administered to buccal/gingival mucosa of the dog. The intravenous dose was administered in cephalic vein in slow i.v. bolus dosed within 30 seconds. Blood samples were collected into K2EDTA tubes over a 48 h period after each treatment at the following time points: predose, 2 min, 5 min, 10 min, 20 min, 30 min, 45 min, 1 h, 2 h, 4 h, 6 h, 8 h, 12 h, 24 h and 48 h post administration. Aliquots of plasma were prepared and stored frozen until analysis. Compound (I) concentration in plasma was determined using Liquid chromatography-triple quadrupole mass spectrometry. The lower limit of quantification for compound (I) in dog plasma was 0.1 ng/ml.

The subject of the next data set is heart rate. Nature of the data set: Effect of compound (I) alone or together with ivabradine on heart rate by oromucosal administration (telemetry). In kind it is in vivo, Beagle dogs. On the procedure:
Male beagle dogs (n=3) were given a dose of compound (I) using oromucosal gel according to Formulation Example 3a alone (dosing period 1) or together with a dose of ivabradine using oromucosal gel according to Formulation Example 3c (dosing period 2). The dose of compound (I) was 18.5 μg/kg and the dose of ivabradine was 1 mg/kg (calculated as ivabradine base). Each dose was divided into two sites on gingival mucosa. The washout period between the dosing periods was at least 6 days. Heart rate of the animals was assesses at baseline and post-dosing using telemetry acquisition system.

For data set [2] the following is noted: in man; cited from earlier work.
Data set [3] is described as follows: Local tolerance of compound (I) given by ocular, intranasal or oromucosal administration to dogs. In kind it is in vivo. To be noted: any administration route (ocular, intranasal, oromucosal), Beagle dogs. On the procedure: Experiment 1. Bioavailability and Local Tolerance of Compound (I) Given by Ocular, Intranasal or Oromucosal Administration to Dogs.
as §1, §2, §3

A short description of data set [4]: Bioavailability of compound (I) given by oropharyngeal aspiration to rats vs i.v. Particulars: for bioavailability: male, Sprague Dawley, rat, plasma, other: oropharyngeal aspiration, read-out: bioavailability of oropharyngeal administration. In kind it is in vivo, Male Sprague Dawley rats. On the procedure:
Oropharyngeal aspiration administration has been developed as an alternative technique for the inhaled delivery of medicaments to the lungs and provides a means to mimic human lung exposure of medicaments by inhalation (Hulland, K. et al., American Journal of Respiratory and Critical Care Medicine 2016, 193:A5928 and Barbayianni, I. et al., Frontiers of Medicine, September 2018, Vol 5, Article 269, 1-6).
Bioavailability of compound (I) given by oropharyngeal aspiration (dosing 10 or 20 μg/kg) was compared to 10 μg/kg intravenous (i.v.) administration in Male Sprague Dawley rats.
Composition for oropharyngeal dosing was as follows:
The oropharyngeal dose was administered to animals which were lightly anaesthetized by isoflurane inhalation. The animals were placed on a vertical stand the top teeth hooked over a rubber band to open the mouth. The 100 μl dose was dispensed by positive displacement pipette at the back of the throat of the animal while holding the tongue to prevent swallowing and nose held to encourage breathing through the mouth for (at least) 3 breaths. The nose released but tongue continually held for an additional couple of breaths to ensure solution deposited in the lungs and not swallowed. All animals recovered consciousness post dose.
The intravenous dose was administered as a slow bolus injection over 30 seconds via the lateral tail vein.
Blood samples were collected into a K2EDTA tube such as to obtain a sample after 5 min, 15 min, 30 min, 1 h, 3 h, 5 h, 8 h, 12 h, 24 h and 48 h post administration.
Aliquots of plasma were prepared and stored frozen until analysis. Compound (I) concentration in plasma was determined using a liquid chromatography-tandem mass spectrometry (LC-MS/MS). The lower limit of quantification for compound (I) in rat plasma was 0.02 ng/ml.

On to `CC(=O)Nc1ccc(C2=NNC(=O)C[C@H]2C)cc1` [Compound (I), (R)—N-[4-(1,4,5,6-tetrahydro-4-methyl-6-oxo-3-pyridazinyl)phenyl]acetamide], for which the bioavailability in data set [1] (other: intranasal (drops), 4 ug/kg, intranasal drops 4 μg/kg vs 4 μg/kg i.v.) worked out at 82%; in data set [1] (other: ocular (eye drops), 4 ug/kg, eye drops, ocular 4 μg/kg vs 4 μg/kg i.v.), 67%; in data set [1] (other: oromucosal (gel to buccal/gingival mucosa), 5 ug/kg, oromucosal gel 5 μg/kg vs 4 μg/kg i.v.), 78%; in data set [4] (oropharyngeal 0.01 mg/kg vs 0.01 mg/kg i.v.), 94.9%; in data set [4] (oropharyngeal 0.02 mg/kg vs 0.01 mg/kg i.v.), 97.1%. The absorption result is listed as “fast absorption comparable to intravenous administration” in data set [1] (ocular drops, intranasal drops or oromucosal gel) and “fast absorption comparable to intravenous administration” in data set [4] (oropharyngeal route). In addition, the “heart rate after dosing” value with heart rate (oromucosal gel 18.5 μg/kg alone, male beagle dogs n=3, baseline 93±9 bpm) is listed as 167±8 bpm. The elimination half-life result in data set [2] was “about 72 h”. For the same compound, the “irritation (local tolerance)” value in data set [3] is on record as “No significant irritation”.
For the compound `COc1cc2c(cc1OC)CC(=O)N(CCCN(C)C[C@H]1Cc3cc(OC)c(OC)cc31)CC2` [ivabradine hydrochloride, reference compound], the “prevention of heart rate increase induced by compound (I)” value in the data set on heart rate (oromucosal 1 mg/kg concurrent with compound (I) 18.5 μg/kg oromucosal, beagle dogs) is “completely prevent the heart rate increase”.
